Experimental data from patent US20090130229A1, “Antitumor uses of compound” (Cell Therapeutics, Inc., priority 2002, published 2009).

Tests used:
[1] = target: T1, FGF-R1 (Mus musculus, UniProt P16092); test: FGF-R1 autophosphorylation and expression in Swiss3T3 cells; type: cell-based; conditions: 18 h
T1 construct: endogenous in cells; host or cells: Swiss3T3 (mouse fibroblasts)
Method: FIG. 6. Inhibition of autophosphorylation and expression of FGF-R1 and FGF-R3 receptors in whole cells by Cpd1. A): Swiss3T3 cells were serum starved for 24 h and then treated with Cpd1 at the indicated concentrations, for 18 h. After stimulation with 100 ng/ml FGF for 5 min, whole cell lysates were prepared and subjected to Western blotting with anti-pTyr or anti-FGF-R1. Protein loading by anti-actin blot is shown. B): NIH3T3 transformed by the FGF-R3 mutant Y373C were treated with the indicated concentrations, for 72 h. Cell extracts were immunoprecipitated with anti-FGF-R3 and then subjected to Western blotting with anti p-Tyr or anti-FGF-R3.
(§1) The following human medullary thyroid carcinoma (MTC) cell lines were used in this study. The TT cell line derived from a MEN2A-associated MTC characterized by expression of the RET oncogene carrying the mutation C634W. […]
(§2) For whole-cell extract preparation, cells were lysed in sodium dodecyl sulfate (SDS) sample buffer (62.5 mM Tris-HCl (pH 6.8), 2% SDS) with 1 mM PMSF, 10 μg/ml pepstatin, 12.5 μg/ml leupeptin, 100 KIU aprotinin, 1 mM sodium orthovanadate, 1 mM sodium molybdate. Protein concentration was determined in appropriately diluted aliquots by the bicinchionic acid (BCA) method (Pierce, Rockford, Ill.), then samples were adjusted to a final concentration of 10% glycerol, 5% β-mercaptoethanol, 0.001% bromophenol blue. […]

[2] = system: NIH3T3 cells transformed with the RET/PTC1 oncogene; conditions: cited from earlier work
[3] = target: T2, Ret/MEN2A(C634R) (Homo sapiens, UniProt P07949, C634R); test: Ret/MEN2A(C634R) autophosphorylation and expression in NIH3T3 transfectants (Western blotting); type: cell-based; conditions: 10 μM
T2 construct: expressed in transfected cells; host or cells: NIH3T3 (mouse fibroblasts)
T2 sequence (P07949 29-1072 isoform P07949-2 C634R limits assumed): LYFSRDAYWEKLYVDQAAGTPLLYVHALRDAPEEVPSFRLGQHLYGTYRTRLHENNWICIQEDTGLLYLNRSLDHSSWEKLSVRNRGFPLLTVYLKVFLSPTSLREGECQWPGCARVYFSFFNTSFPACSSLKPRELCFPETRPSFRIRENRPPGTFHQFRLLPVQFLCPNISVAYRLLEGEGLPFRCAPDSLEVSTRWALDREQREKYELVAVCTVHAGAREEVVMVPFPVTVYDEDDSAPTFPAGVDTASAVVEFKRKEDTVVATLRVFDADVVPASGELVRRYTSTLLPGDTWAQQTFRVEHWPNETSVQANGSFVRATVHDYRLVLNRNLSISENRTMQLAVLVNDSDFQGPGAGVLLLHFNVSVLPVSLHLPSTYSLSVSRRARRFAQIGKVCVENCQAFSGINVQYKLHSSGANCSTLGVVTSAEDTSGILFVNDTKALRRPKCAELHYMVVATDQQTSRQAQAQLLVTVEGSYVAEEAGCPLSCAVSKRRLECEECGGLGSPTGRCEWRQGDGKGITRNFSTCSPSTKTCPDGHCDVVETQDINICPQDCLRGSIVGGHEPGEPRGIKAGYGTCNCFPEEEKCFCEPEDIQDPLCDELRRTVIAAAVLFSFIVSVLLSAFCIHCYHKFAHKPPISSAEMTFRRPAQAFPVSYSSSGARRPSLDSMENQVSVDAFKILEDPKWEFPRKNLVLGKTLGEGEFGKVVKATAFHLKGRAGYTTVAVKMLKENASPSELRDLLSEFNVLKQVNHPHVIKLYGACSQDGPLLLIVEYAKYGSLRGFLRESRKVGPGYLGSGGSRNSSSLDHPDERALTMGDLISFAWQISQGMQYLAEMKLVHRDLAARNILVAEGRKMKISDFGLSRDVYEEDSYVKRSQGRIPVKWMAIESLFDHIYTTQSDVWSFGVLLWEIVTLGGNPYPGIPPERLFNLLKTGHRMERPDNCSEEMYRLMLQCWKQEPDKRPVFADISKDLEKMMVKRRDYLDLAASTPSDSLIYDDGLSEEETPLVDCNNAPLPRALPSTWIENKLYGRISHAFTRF
Method: FIG. 1. Effects of Cpd 1 on NIH3T3^MEN2A(C634R) transfectants expressing exogenous RET/MEN2A(C634R). […] Cells were exposed to 6 μM Cpd1 for 24 h and then photographed under a phase-contrast microscope (original magnification ×100). B) Antiproliferative effect. NIH3T3^MEN2A(C634R) cells and the parental NIH3T3 cells were treated with increasing concentrations of the drug for 72 h and then counted with a Coulter Counter. […] C) Inhibition of Ret/MEN2A(C634R) autophosphorylation and expression. Cells were treated with solvent (−) or 10 μM Cpd1 (+), for the indicated times. Whole cell-lysates were prepared and subjected to SDS-PAGE and Western blotting with anti-pTyr antibody. After stripping, the filter was reblotted with anti-Ret antibody. Arrows indicate the partial and fully glycosilated forms of the Ret/MEN2A receptor.
The following human medullary thyroid carcinoma (MTC) cell lines were used in this study. The TT cell line derived from a MEN2A-associated MTC characterized by expression of the RET oncogene carrying the mutation C634W. The MZ-CRC-1 cell line derived from MEN2B-associated MTC characterized by expression of the RET oncogene carrying the mutation M918T. TT cells were cultivated in Ham's F12 medium (BioWhittaker, Verviers, Belgium) supplemented with 15% fetal calf serum (FCS) (Life Technologies, Inc., Gaithersburg, Md.) whereas MZ-CRC-1 cells were grown in Dulbecco's modified Eagle's medium (DMEM) (BioWhittaker) supplemented with 10% FCS. […]
as §2

[4] = target: T3, c-Kit (Homo sapiens, UniProt P10721); test: c-Kit autophosphorylation and expression in SCLC cell line N592; type: cell-based; conditions: N592 cells, 24 h
T3 construct: endogenous in cells; host or cells: N592 (human small cell lung carcinoma)
T3 sequence (P10721 26-976): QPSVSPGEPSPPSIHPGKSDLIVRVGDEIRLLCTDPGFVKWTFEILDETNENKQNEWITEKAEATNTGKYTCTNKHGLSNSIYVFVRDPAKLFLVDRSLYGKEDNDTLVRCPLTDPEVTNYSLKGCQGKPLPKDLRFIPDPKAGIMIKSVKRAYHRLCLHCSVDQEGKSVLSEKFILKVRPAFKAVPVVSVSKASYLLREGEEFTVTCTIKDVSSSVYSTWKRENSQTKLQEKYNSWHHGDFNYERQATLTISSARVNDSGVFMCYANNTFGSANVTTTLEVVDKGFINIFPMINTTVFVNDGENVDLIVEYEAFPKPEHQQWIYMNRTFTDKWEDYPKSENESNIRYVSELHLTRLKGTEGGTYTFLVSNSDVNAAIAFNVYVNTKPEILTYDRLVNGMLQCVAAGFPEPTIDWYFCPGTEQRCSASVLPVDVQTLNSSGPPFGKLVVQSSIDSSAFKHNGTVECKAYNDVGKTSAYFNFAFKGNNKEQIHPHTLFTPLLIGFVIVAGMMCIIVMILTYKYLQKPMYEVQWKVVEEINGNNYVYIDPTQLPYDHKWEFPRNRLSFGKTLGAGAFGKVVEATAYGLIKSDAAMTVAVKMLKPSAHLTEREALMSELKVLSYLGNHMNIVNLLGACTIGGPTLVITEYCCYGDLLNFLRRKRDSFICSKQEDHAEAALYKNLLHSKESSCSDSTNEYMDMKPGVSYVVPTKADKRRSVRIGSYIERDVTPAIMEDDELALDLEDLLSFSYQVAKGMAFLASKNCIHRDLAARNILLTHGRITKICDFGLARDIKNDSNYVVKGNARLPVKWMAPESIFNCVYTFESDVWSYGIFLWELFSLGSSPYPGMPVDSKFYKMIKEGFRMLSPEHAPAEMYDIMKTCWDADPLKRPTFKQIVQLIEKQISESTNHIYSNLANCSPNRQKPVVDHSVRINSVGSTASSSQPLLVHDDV
Method: FIG. 7. Effects of Cpd1 on cell lines expressing constitutively activated forms of Kit. […] Cells were treated with 20 μM Cpd1 and photographed 24 h later under a phase-contrast microscope (original magnification X 100). B): Inhibition of Kit (Δ559) autophosphorylation and expression in NIH3T3 transfectants. Cells were treated with Cpd 1 at the indicated concentrations, for 72 h. Cell lysates were immunoprecipitated with anti-Kit antibody and subjected to Western blotting with anti-p-Tyr or anti-Kit antibodies. C): Inhibition of expression and autocrine loop-activated autophosphorylation of c-Kit in the SCLC cell line N592. Cells were treated with Cpd 1 at the indicated concentrations, for 24 h. Whole cell lysates were subjected to Western blotting with anti-Kit antibody or with an antibody specifically recognizing the tyrosine phosphorylated/activated Kit (p-Kit). […]
as §2

[5] = target: T4, Kit (Δ559) (Homo sapiens, UniProt P10721, DEL559-559); test: Kit (Δ559) autophosphorylation and expression in NIH3T3 transfectants; type: cell-based; conditions: 72 h
T4 construct: expressed in transfected cells; host or cells: NIH3T3 (mouse fibroblasts)
T4 sequence (P10721 with tags, fused parts or gaps DEL559-559): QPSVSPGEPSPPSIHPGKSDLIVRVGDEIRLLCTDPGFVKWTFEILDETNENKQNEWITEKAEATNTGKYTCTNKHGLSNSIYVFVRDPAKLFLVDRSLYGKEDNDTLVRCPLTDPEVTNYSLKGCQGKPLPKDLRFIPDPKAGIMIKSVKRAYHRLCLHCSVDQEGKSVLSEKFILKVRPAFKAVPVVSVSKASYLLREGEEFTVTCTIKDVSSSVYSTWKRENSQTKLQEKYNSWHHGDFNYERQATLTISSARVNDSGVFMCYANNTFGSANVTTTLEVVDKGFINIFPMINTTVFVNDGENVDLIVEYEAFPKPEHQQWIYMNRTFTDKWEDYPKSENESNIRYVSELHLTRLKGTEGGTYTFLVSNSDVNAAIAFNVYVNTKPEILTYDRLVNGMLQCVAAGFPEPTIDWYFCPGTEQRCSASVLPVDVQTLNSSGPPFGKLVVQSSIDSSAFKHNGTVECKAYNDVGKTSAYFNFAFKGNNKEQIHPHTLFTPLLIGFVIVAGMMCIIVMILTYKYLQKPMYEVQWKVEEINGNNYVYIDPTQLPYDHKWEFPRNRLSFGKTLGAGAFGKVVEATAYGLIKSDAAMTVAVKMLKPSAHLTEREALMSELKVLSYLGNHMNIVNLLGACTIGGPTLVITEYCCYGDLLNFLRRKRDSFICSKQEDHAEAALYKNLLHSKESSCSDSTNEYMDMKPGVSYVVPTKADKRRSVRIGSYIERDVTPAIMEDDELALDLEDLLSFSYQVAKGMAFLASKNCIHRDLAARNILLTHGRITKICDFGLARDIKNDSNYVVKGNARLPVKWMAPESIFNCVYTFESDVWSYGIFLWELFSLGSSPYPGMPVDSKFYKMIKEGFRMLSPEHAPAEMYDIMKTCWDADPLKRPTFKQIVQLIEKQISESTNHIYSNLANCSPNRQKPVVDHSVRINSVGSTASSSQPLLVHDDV
Method: FIG. 7. Effects of Cpd1 on cell lines expressing constitutively activated forms of Kit. […] Cells were treated with 20 μM Cpd1 and photographed 24 h later under a phase-contrast microscope (original magnification X 100). B): Inhibition of Kit (Δ559) autophosphorylation and expression in NIH3T3 transfectants. Cells were treated with Cpd 1 at the indicated concentrations, for 72 h. Cell lysates were immunoprecipitated with anti-Kit antibody and subjected to Western blotting with anti-p-Tyr or anti-Kit antibodies. C): Inhibition of expression and autocrine loop-activated autophosphorylation of c-Kit in the SCLC cell line N592. Cells were treated with Cpd 1 at the indicated concentrations, for 24 h. Whole cell lysates were subjected to Western blotting with anti-Kit antibody or with an antibody specifically recognizing the tyrosine phosphorylated/activated Kit (p-Kit).
as §1, with “C634W. The MZ-CRC-1 cell line derived from MEN2B-associated MTC characterized by expression of the RET oncogene carrying the mutation M918T.” for “C634W.”
For immunoprecipitation experiments, cells were treated with Cpd1 or solvent for the indicated times. […] Protein concentration was determined by the BCA reagent (Pierce). […]

T1 sequence (P16092 22-822): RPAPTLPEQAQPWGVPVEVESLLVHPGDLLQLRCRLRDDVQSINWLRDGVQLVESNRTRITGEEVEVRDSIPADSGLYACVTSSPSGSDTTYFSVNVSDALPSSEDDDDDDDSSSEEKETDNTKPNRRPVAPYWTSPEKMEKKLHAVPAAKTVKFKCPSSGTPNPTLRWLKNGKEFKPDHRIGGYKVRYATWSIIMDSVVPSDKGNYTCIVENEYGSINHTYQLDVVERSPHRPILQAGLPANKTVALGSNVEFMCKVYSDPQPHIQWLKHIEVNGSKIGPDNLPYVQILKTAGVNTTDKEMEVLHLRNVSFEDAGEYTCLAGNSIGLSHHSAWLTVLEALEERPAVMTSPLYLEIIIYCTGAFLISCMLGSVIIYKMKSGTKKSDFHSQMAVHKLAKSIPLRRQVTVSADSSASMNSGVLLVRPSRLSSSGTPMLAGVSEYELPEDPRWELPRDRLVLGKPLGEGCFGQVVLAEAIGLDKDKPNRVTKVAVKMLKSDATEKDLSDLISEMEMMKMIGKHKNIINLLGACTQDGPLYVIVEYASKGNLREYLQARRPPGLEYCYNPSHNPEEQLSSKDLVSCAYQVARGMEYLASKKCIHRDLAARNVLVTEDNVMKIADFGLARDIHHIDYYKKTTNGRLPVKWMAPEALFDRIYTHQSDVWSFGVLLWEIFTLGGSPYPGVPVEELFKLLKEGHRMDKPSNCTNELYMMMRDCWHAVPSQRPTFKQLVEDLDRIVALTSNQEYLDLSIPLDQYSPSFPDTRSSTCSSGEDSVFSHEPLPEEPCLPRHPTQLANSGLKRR

Structure (SMILES): COc1cc2c(cc1OC)/C(=C\c1ccc(O)cc1)C(=O)N2 [Cpd 1, (E)-1,3-dihydro-5,6-dimethoxy-3-[(4-hydroxyphenyl)methylene]-2H-indol-2-one]
- FGF-R1 tyrosine phosphorylation ([1]; Swiss3T3 cells serum starved, 100 ng/ml FGF 5 min): dose-dependent inhibition
- FGF-R1 expression ([1]; Swiss3T3 cells): dose-dependent inhibition
- Reverting the morphologic phenotype [2]: particularly effective
- Ret/MEN2A(C634R) tyrosine phosphorylation ([3]; 2 h of exposure): partially dephosphorylated
- Ret/MEN2A(C634R) receptor expression ([3]; longer times than 2 h): reduced expression
- Ret/MEN2A(C634R) tyrosine phosphorylation ([3]; longer times than 2 h): complete tyrosine dephosphorylation
- c-Kit autocrine loop-activated tyrosine phosphorylation (p-Kit) [4]: dose-dependent drug-induced inhibition
- c-Kit expression [4]: dose-dependent drug-induced inhibition
- Kit (Δ559) expression [5]: dose-dependent drug-induced inhibition
- Kit (Δ559) tyrosine phosphorylation [5]: dose-dependent drug-induced inhibition
